Results from patent US20190030053A1, “COMPOSITION FOR INCREASING EXPRESSION OF PGC-1alpha” (BENEBIOSIS CO., LTD., priority 2016, published 2019).

Assays:
[1] = test system: mouse models with temporary and permanent middle cerebral artery (MCA) occlusion; assay: Ischemic volume (TTC) in stroke models with middle cerebral artery occlusion; format: in vivo; settings: intraperitoneal
Source text: In order to investigate the changes in ischemic volume and modified limb placing test (MLPT) score by treatment with SL (3′-SL & 6′-SL) compositions in stroke models, 4-week-old mice were purchased from Central Lab Animal (Korea). Water was freely accessible, and a commercially available pellet feed (Dooyeul Biotech, Korea) was given for one week. Stroke models involving temporary and permanent middle cerebral artery (MCA) occlusion and intracerebral hemorrhage (ICH) were fabricated using 6-week-old male Sprague-Dawley rats (weight, average 185.3±15.8 g) and male BALB/c mice weight, average 24.6±3.8 g). For the comparison of SL administration effects, the mice, one hour after stroke induction, were randomly grouped into three different intraperitoneal administration groups (8 animals per group, 24 animals in total) below, and then intraperitoneally administered: • Control group: Lysis buffer control group medium intraperitoneal administration group (8 animals) • 3′-SL treatment: 3′-SL lysis buffer medium intraperitoneal administration group (8 animals) • 6′-SL treatment: 6′-SL lysis buffer medium intraperitoneal administration group (8 animals)
Local cerebral infarction mouse models were used as additional cerebral infarction models, and in these models, SL (3′-SL & 6′-SL) was intraperitoneally administered 3 hours after cerebral infarction introduction: • Control group: Lysis buffer control group medium intraperitoneal administration group (8 animals) • 3′-SL treatment: 3′-SL lysis buffer medium intraperitoneal administration group (8 animals) • 6′-SL treatment: 6′-SL lysis buffer medium intraperitoneal administration group (8 animals)
The ischemic volume measurement was conducted by measuring the volume of the ischemic area (infarct and boundary region thereof) using […] (TTC), 24 hours after ischemic induction, as follows. After brain extraction, the frontal tip was cut into 1 mm thickness, and immersed in 2% TCC solution. The stained slices were then fixed with PBS-4% paraformaldehyde, and the ischemic site and hemispherical region of each slice were measured using an image analysis system. The values due to brain edema were corrected as follows: corrected ischemic volume value: measured ischemic area×1−{[(ipsilateral hemisphere area-contralateral hemisphere area)/contralateral hemisphere]}. The ischemic volume was expressed as a percentage of the total hemispherical volume.

telomerase = assay: Telomerase activity (TRAP) in vivo, aorta of arteriosclerosis models (ApoE−/−); design: species or system mouse; settings: ApoE−/− mice, high-fat diet, oral 0.1 mg/kg/day, 6 weeks
Source text: In order to investigate the aging-related chronic disease preventing effect through the control of telomerase functions and DNA damage by the treatment with SL (3′-SL & 6′-SL) compositions in arteriosclerosis models, two types of 24-week-old male model mice (PGC-1α^+/+ApoE^−/−) were randomly grouped into three different dietary treatment groups (8 animals per group) below, and the diets were maintained for 6 weeks (a total of 24 animals): • Control group: Arteriosclerosis models fed with a high-fat diet (Rodent Diet with 60 kcal % fat) (8 animals) • 3′-SL administration group: Arteriosclerosis models treated with 3′-sialyllactose (3′-SL, Sigma) (oral administration of 0.1 mg per kg of mouse weight per day) in addition to the high-fat diet group (8 animals) • 6′-SL administration group: Arteriosclerosis models treated with 6′-sialyllactose (6′-SL, Sigma) (oral administration of 0.1 mg per kg of mouse weight per day) in addition to the high-fat diet group (8 animals)
In FIG. 20, the telomerase activity was measured using TRAP protocol (Wright et al., 1995). […] The fluorescence of the thus obtained TRAP product was measured using a fluorescent plate reader to quantify telomerase activity. Relative telomerase activity was normalized by the ratio of native […] to sulforhodamine (internal control standard), expressed as a percentage. […]

PGC-1α protein = PGC-1α protein expression in brain and hippocampus of old mouse models (western blot); format: in vivo; settings: ICR mice, oral 0.1 mg/kg/day, 42 weeks
Method: In order to investigate the relative protein expression in the brain compared with before SL (3′-SL & 6′-SL) aministration, 4-week-old ICR mice were purchased from Central Lab Animal (Korea). Water was freely accessible, and a commercially available pellet feed (Dooyeul Biotech, Korea) was given for two weeks. […]
Sialyllactose or DW was orally administered daily. […] The dietary intake and body weight change were measured every 5 days. […]
In FIG. 2b, BB1 6′ represents 6′-SL. The “PGC-1α protein expression level” and “GAPDH protein expression level” in each site were quantified, and the relative ratio of the values, (PGC-1α protein expression level)/(GAPDH protein expression level) was numerically expressed for the control group, 3′-SL administration group, and 6′-SL administration group. […]

Row | SMILES | ischemic neuronal damage protective effects ([1]; MCA occlusion models) | telomerase activity in aorta sample (in vivo) (telomerase) | PGC-1α protein expression level (PGC-1α/GAPDH) vs negative control (PGC-1α protein) | reduction of ischemic volume ([1]; all models, 24 hours after ischemic induction) | reduction of ischemic volume ([1]; local cerebellar permanent ischemia models) [%] | reduction of ischemic volume ([1]; local cerebellar temporal ischemia models) [%] | reduction of ischemic volume ([1]; local cerebral permanent occlusion models) [%]
1 | CC(=O)N[C@H]1[C@H]([C@H](O)[C@H](O)CO)O[C@@](O[C@H]2[C@@H](O)[C@@H](CO)O[C@@H](O[C@H]3[C@H](O)[C@@H](O)C(O)O[C@@H]3CO)[C@@H]2O)(C(=O)O)C[C@@H]1O (stereo partly drawn) [3′-SL, α-NeuNAc-(2→3)-β-D-Gal-(1→4)-D-Glc] | relatively low compared with 6′-SL | increased telomerase activity |  |  |  |  | 
2 | CC(=O)N[C@H]1[C@H]([C@H](O)[C@H](O)CO)O[C@@](OC[C@H]2O[C@@H](O[C@H]3[C@H](O)[C@@H](O)[C@H](O)O[C@@H]3CO)[C@H](O)[C@@H](O)[C@H]2O)(C(=O)O)C[C@@H]1O [6′-SL, α-NeuNAc-(2→6)-β-D-Gal-(1→4)-D-Glc] |  | increased telomerase activity | much higher | about 50% | 50 | 60 | 40
